For this assay, the system named is copepodid stage of sea lice. Description: Bath test against copepodid stage of sea lice. Format: in vivo. The settings on record: in a bath at similar dosage. An excerpt:
While compounds in this class act with similar modes of action (in this case on the gamma-aminobutyric acid (GABA) and glutamate gated chloride channels), differences do exist among them that influence pharmacological activity.

`C#CCNC(=O)CNC(=O)c1sc(C2=NOC(c3cc(Cl)cc(Cl)c3)(C(F)(F)F)C2)cc1C` (stereo not shown): the “activity against the copepodid stage of sea lice” value was “inactive”.

Source of the values: patent publication US12280040B2, “Compositions and methods of a dihydroisoxazole compound that reduces ectoparasite infestations on fish” (EVAH Atlantic Inc., priority 2023, dated 2025).
